From patent publication US20100298348A1, “Method of Decreasing Ubiquitylated Protein Levels” (priority 2009, published 2010)

How the values were obtained:
APP = experiment: Western blot of APP and C-terminal fragments in 3xTg-AD mouse brain; type: in vivo; settings: 5 mg/kg/day
Method: To attempt to determine at what part in the Aβ processing/release pathway ST101 may be active, a series of Western blot analyses of brain extracts from the same mice were conducted. These Westerns blots examined intact APP as well as products of its post-translational processing and subsequent degradation.
FIG. 4 is a Western blot that depicts APP C-terminal fragments detected by antibody CT20 in the brains of ST101-treated (S) 3xTg-AD mice, relative to untreated (C) 3xTg mice-AD.
FIG. 5 is a Western blot that depicts APP and degradation fragments detected by antibody CT20 in the brains of ST101-treated (S) 3xTg-AD mice, relative to untreated (C) 3xTg-AD mice. “CT20” stands for full length APP species, and “Actin” stands for anti-beta-actin antibody as a protein loading control.
FIGS. 10A and 10B are Western blots that depict APP carboxy-terminal fragments detected by antibody CT20 in the brains of ST101-treated (T in FIG. 10A, S in FIG. 10B) 3xTg-AD mice, relative to untreated (C) 3xTg-AD mice. FIG. 10B is from a separate experiment that used the same brain extract used in the experiment for FIG. 10A. Animals were approximately 14.5 months old at sacrifice after 2.5 months of treatment with ST101 at 5 mg/kg/day in drinking water. * denotes a control animal with low levels of CTFs.
FIGS. 10C and 10D are Western blots that depict APP carboxy-terminal fragments detected by an APP C-terminal antibody (Eptitomics #: 15654-1) in the brains of ST101-treated (S) 3xTg-AD mice, relative to untreated (C) 3xTg-AD mice. FIG. 10D is a lighter exposure of the Western blot in FIG. 10C. Animals were approximately 14.5 months old at sacrifice after 2.5 months of treatment with ST101 at 5 mg/kg/day in drinking water.
Brain extracts from 12-month-old 3xTg-AD mice that had been treated with ST101 (S) at 5/mg/kg/day in drinking water over 2 months were analyzed in Western blots using a C-terminal APP antibody (CT-20 Calbiochem).

ubiquitylated proteins = experiment: Anti-ubiquitin Western blot of C57/B6 wildtype mouse brain; type: in vivo; settings: C57/B6 wildtype mice, 5 mg/kg/day in drinking water, 2 months
Method: Brain extracts from 2 month-old C57/B6 wildtype mice that had been treated with ST101 at 5/mg/kg/day in drinking water over 2 months were analyzed in Western blots using an anti-ubiquitin antibody (Dako no. Z0448).

[1] = test system: rodent models of learning and memory; settings: cited from earlier work
ADAM10 = experiment: Western blot of ADAM10 in 3xTg-AD mouse brain; type: in vivo; settings: 3xTg-AD mice ~12 months old, 5 mg/kg/day, 2 months
Method: APP C-terminal fragments C99 and C83 are created by beta-secretase and alpha-secretase cleavage respectively. The reduction of both C99 and C83 induced by ST101 could therefore be due to reduction or inhibition of secretases. This hypothesis was tested using Western blots of brain extracts from 3xTg-AD mice from the initial experiment in 12-month-old animals treated with ST101 for 2 months. The only beta-secretase is BACE1 and the constitutive alpha-secretase is ADAM10.
(§1) Western blots were probed with antibodies against BACE1 and ADAM10. FIG. 11A is a series of Western blots depicting levels of proADAM10, ADAM10, proBACE, BACE, Presenilinl and APP-CFTs in brain extracts from ST101 treated 3×TG-AD mice (S) versus control mice (C). C: control brain extract. S: ST101-treated brain extract. Animals were approximately 12 months old at sacrifice after 2 months of treatment with ST101 at 5 mg/kg/day.

tau = experiment: Tau immunohistochemistry with H7 antibody in 3xTg-AD mice; type: in vivo, mouse
From the text: The 3xTg-AD mouse model incorporates both pathological hallmarks of Alzheimer's disease: Aβ amyloid plaques and neurofibrillary tangles. Neurofibrillary tangles consist of accumulates of abnormally phosphorylated tau protein. In the 3xTg-AD mice pathological somato-dendritic accumulation of tau can be seen in immunohistochemistry as part of the disease model phenotype.
ST101 effects on tau distribution and accumulation were explored in immunohistochemistry with H7 anti-tau antibody.

ADAM17 (TACE) = experiment: Western blot of TACE in 3xTg-AD mouse brain; type: in vivo; settings: 3xTg-AD mice ~14.5 months old, 5 mg/kg/day in drinking water, 2 months as printed
Method: In addition to ADAM10, ADAM17 (TACE, which is Tumor Necrosis Factor converting enzyme) is known to act as an alpha-secretase of APP. Thus, it was tested in a Western blot whether ST101 reduces levels of ADAM17 (TACE).
The Western blot was obtained using a TACE specific antibody in brain extracts from ST101 treated 3×TG-AD mice (S) versus control mice (C). Animals were approximately 14.5 months old at sacrifice after 2 months of treatment with ST101 at 5 mg/kg/day in drinking water.

huntingtin = experiment: Western blot of pS13 huntingtin in 3xTg-AD mouse brain; type: in vivo; settings: 3xTg-AD mice 12 months old, 5 mg/kg/day, 2 months; in the majority of cases
Method: In a first pilot experiment to explore the effect of ST101 on proteins that accumulate in neurodegenerative diseases other than AD, brain extracts from ST101-treated 3xTg-AD mice (S) and control mice (C) mice were analyzed by Western blotting with an antibody directed against huntingtin, specifically against a phospho-epitope around serine 13 (pS13 huntingtin). These extracts are from the same mice as those used in Examples 15 and 16.

proteasome = experiment: Western blot of proteasome subunits in brain extracts; type: in vivo, mouse; settings: 12-month-old 3xTg-AD mice, 5 mg/kg/day, 2 months
Method: Brain extracts from 12-month-old 3xTg-AD mice (described in Example 15) that had been treated with ST101 at 5/mg/kg/day in drinking water over 2 months were analyzed in Western blots using an anti-proteasome alpha-subunit antibody.

[2] = test system: long-term potentiation (LTP); settings: cited from earlier work
Presenilin 1 = experiment: Western blot of Presenilin 1 in 3xTg-AD mouse brain; type: in vivo; settings: 3xTg-AD mice ~12 months old, 5 mg/kg/day, 2 months
Method: as §1

acetylated alpha-tubulin = experiment: Western blot of acetylated alpha-tubulin in cynomolgus monkey hippocampus; type: in vivo; settings: cynomolgus monkeys of Example 19, hippocampal brain samples
From the text: The effects on tubulin were confirmed in the group of cynomolgus monkeys described in example 19.

[3] = 3xTg-AD mice ~12 months old, 2 months, antibody CT20

## O=C1N=C2C=CC=CN2C12Cc1ccccc1C2 [ST101, spiro(imidazo[1,2-a]pyridin-2(3H)-one-3,2′-indan)]
APP; 3xTg-AD mice 12 months old, 2 months, antibody CT-20
  AICD fragment (APP intracellular domain): visible in brain extracts from ST101 treated mice (S) but not in control mice (C)
APP; [3]
  C83 C-terminal APP fragment: substantial decrease
  C99 C-terminal APP fragment: substantial decrease
  full-length APP species, band shift: slightly lowered molecular weight
  major APP degradation intermediate (~50 kDa): disappearance or significant reduction
  novel C-terminal APP fragment of about 17 kDa: appearance
APP; 3xTg-AD mice ~14.5 months old, 2.5 months
  17 kDa APP fragment: lack of detection
APP; 3xTg-AD mice ~14.5 months old, 2.5 months, Epitomics C-terminal APP antibody
  C99 fragment: reduction
APP; 3xTg-AD mice ~14.5 months old, 2.5 months, antibody CT20
  APP CTFs: significant effect of reduction
APP; 3xTg-AD mice ~14.5 months old, 2.5 months, compared with 12-month old mice
  C83 fragment: not reduced to the same degree
Ubiquitylated proteins
  ubiquitylated proteins: modest reduction
[1]; methamphetamine, MK-801, scopolamine
  memory deficits induced by chemical amnesic agents: attenuates
[1]; rodent models
  age-impaired memory: significantly improves
ADAM10
  ADAM-10 protein level: not significantly affected
  pro-ADAM10 protein level: profound reduction
tau
  neuronal loss, Hematoxylin/Eosin stained control sections: no neuronal loss
tau; hippocampus, H7 anti-tau antibody
  pathological somato-dendritic tau staining: clear reduction
ADAM17 (TACE)
  TACE levels: reduction of TACE levels in the majority of ST101 treated animals
huntingtin
  huntingtin protein levels (pS13 huntingtin): significantly reduced
proteasome
  concentration of proteasome alpha subunits: No difference is apparent
  high molecular weight bands reactive with proteasome alpha-subunit antibody: clear decrease
  proteasome subunit beta 2i: did not reveal changes
  proteasome subunit beta 5i: did not reveal changes
[2]
  long-term potentiation (LTP): efficacy in increasing long-term potentiation (LTP)
Presenilin 1
  Presenilin 1 level: did not show significant changes
Acetylated alpha-tubulin
  acetylated alpha-tubulin fragments: reduction
